Read-outs that look alike come from different tables or passages of the source.
Assays:
Assay type in all cases: cell-based
[1] = system: normal human epidermal keratinocytes (HEKn); experiment: Growth inhibition of cultured human keratinocytes (cell count by Coulter Counter); conditions: Keratinocyte, 144 h, read-out: inhibition against keratinocytes
Experimental: Keratinocytes: normal human epidermal keratinocytes (HEKn:C-001-5C, Kurabo Industries).
(§1) Melanocytes were cultured at 2×10^5 cells/well in MGM3 (Melanocyte Growth Medium 3, Takara Shuzo) used as a culture medium. Keratinocytes were cultured at 1×10^5 cells/well in KGM2 (Keratinocyte Growth Medium 2, Takara Shuzo) used as a culture medium. To each well was added 22-oxacalcitriol or calcitriol at a final concentration of 10^−7 M and cultivation was continued. On days 3 and 6 after the addition, the number of cells was determined by a Coulter Counter.

[2] = system: normal human epidermal melanocytes (NHEM); experiment: Growth inhibition of cultured human melanocytes (cell count by Coulter Counter); conditions: Melanocyte, 144 h, read-out: inhibitory effect against the proliferation of melanocytes
Experimental: (§2) Melanocytes: normal human epidermal melanocytes (NHEM:KM-4009, Kurabo Industries).
as §1

Human melanocytes = experiment: Tritiated thymidine (3[H]-TdR) uptake by cultured human melanocytes; conditions: 10^-7 M, day 1
Experimental: as §2
Human melanocytes were cultured at 5×10^5 cells/well in MGM3 used as a culture medium, and 22-oxacalcitriol or calcitriol was added to each well at a final concentration of 10^−7 M to determine tritiated thymidine (^3[H]-TdR) uptake by cells in a liquid scintillation counter on days 1, 3 and 5 after the addition.

[3] = 10^-7 M, day 6, average of 5 experiments

Compound | inhibition at 0.1 µM [1, 3] [%] | inhibition at 0.1 µM [2, 3] [%] | decrease in tritiated thymidine uptake (Human melanocytes) [%] | inhibition at 0.1 µM [1] [%] | inhibition at 0.1 µM [2] [%]
C=C1/C(=C\C=C2/CCC[C@]3(C)[C@@H]([C@H](C)OCCC(C)(C)O)CC[C@@H]23)C[C@@H](O)C[C@@H]1O [22-oxacalcitriol] | 25 | ≥ 30 |  |  | 
C=C1/C(=C\C=C2/CCC[C@]3(C)[C@@H]([C@H](C)CCCC(C)(C)O)CC[C@@H]23)C[C@@H](O)C[C@@H]1O [calcitriol, 1α,25-dihydroxyvitamin D3] |  |  | 50 | 40 | ≥ 30
